Consider seven compounds from patent publication US20060099712A1, “Correlation of anti-cancer activity of dyes with redox potentials” (Eastman Kodak Company, priority 2004, published 2006).

≈ marks a conversion by molar mass, not a printed value.

The subject of data set [1] is MCF-7 Human Breast Carcinoma. The data set can be described thus: Initial in vitro screening, breast carcinoma cells. Format: cell-based. As to conditions: for Selectivity: IC50 CV-1 / IC50 cell line 3 (breast carcinoma); for IC50 (concentration at which 50% of the cells of the culture are killed) / IC50: cell line 3, MCF-7 human breast carcinoma, unit from method; for IC50: MCF7, read-out: IC50 (concentration at which 50% of the cells of the culture are killed). An excerpt:
(§1) Other publications have shown that some cyanine dyes show anti-cancer activity. See I. Minami, Y. Kozai, H. Nomura and T. Tashiro, Chem. Phar. Bull. 30:3106 (1982); W. M. Anderson, D. L. Delinick, L. Benninger, J. M. Wood, S. T. Smiley and L. B. Chen, Biochemical Pharmacology, 45:691 (1993). […] (See L. G. S. Brooker, L. A. Sweet, Science, 105, (1947) and I. Minami, Y. Kozai, H. Nomura, T. Tashiro, Chem. Pharm. Bull., 30,3106 (1982) on chemotherapeutic investigations of cyanine dyes.) Table I lists initial in vitro screening results in various cell lines and a comparison with Adriamycin, which is a widely used chemotherapeutic agent.
(§2) Description of Cell Line • 1. CV-1 Normal Monkey Kidney Epithelial (control) • 2. CX-1 Human Colon Carcinoma • 3. Human Breast Carcinoma • 4. Human Pancreatic Carcinoma • 5. Human Bladder Carcinoma • 6. Human Lung Carcinoma • 7. Human Squamous Cell Carcinoma • 8. Human Adrenal Cortex Carcinoma

For data set [2], the system named is CCL 185 Human Lung Carcinoma. The data set can be described thus: Initial in vitro screening, lung carcinoma cells. As to conditions: for Selectivity: IC50 CV-1 / IC50 cell line 6 (lung carcinoma); for IC50: read-out: IC50 (concentration at which 50% of the cells of the culture are killed). Format: cell-based.
Excerpt: as §1, §2

Data set [3] in a line: Electrochemical reduction potential (Er) measurement, SHACV / fast scan CV. Format: physicochemical. Conditions: for Er: Table XIX, reduction potential vs. Ag/AgCl, in V (unit assumed). An excerpt:
In the practice of this invention the reduction potential of a given dye may be determined in various ways. If available, the published reduction potential may be employed. Reduction potentials for numerous cyanine and merocyanine dyes are available in the literature. (See J. Lenhard, Journal of Imaging Science, vol. 30 pp. 27-35 (1986).) A large amount of data has been generated on the reduction and oxidation potentials of these dyes from their use in photography and related arts where they are employed, inter alia, as spectral sensitizers.
(§3) If a published reduction potential is not available, suitable techniques for measuring reduction potential are available. Accurate electrochemical oxidation and reduction potentials for these organic dyes can be measured by the techniques of fast scan cyclic voltommetry (CV) or second harmonic ac voltommetry (SHACV). SHACV measurements are made as described by Lenhard in the Journal of Imaging Science volume 30, 1986 pp 27-35 using a commercially available (Princeton Applied Research Corp.) potentiostat in conjunction with voltage programmer, a conventional lock-in amplifier, and a low-distortion oscillator. The SHACV method utilizes an ac voltage waveform (of a frequency greater than or equal to 400 hz) that is superimposed on a DC potential ramp. On the other hand, the measurement of the oxidation or reduction potential by the CV method utilizes a (high frequency) triangular voltage waveform. The general procedures for measuring potentials by this method have been described by Wightman in Analytical Chemistry, 1984, vol. 56, pp524 and Journal of Physical Chemistry, 1984, vol. 88, pp3915. The specific application of this technique to the measurement of cyanine dye potentials has been reported by Nomura and Okazaki, Chemistry Letters, 1990, pp2231-2234. Commercial instrumentation especially designed for fast scan (i.e., high frequency) CV is available. It is noteworthy that because of the complicated nature of many of the cyanine dyes, electrochemical reactions, conventional slow scan cyclic voltommetry or polarography methods (as described by R. Large in Photographic Sensitivity, R. Cox, ed., Academic Press, New York, 1973, pp 241-263) provide only approximate values for oxidation and reduction potentials. Errors as large as 0.4 V from the true potential can be obtained by using slow scan CV or electrochemical methods.
(§4) The procedure for measuring the oxidation or reduction potential by the SHACV or fast scan CV method utilizes solutions of acetonitrile (or similar nonaqueous solvent) with added tetrabutylammonium tetrafluoroborate TBABF4 at a concentration of 0.1 M and ca. 5×10^−4 M of the cyanine, oxonol, or merocyanine dye. For measurement of the reduction potential the solution must be deaerated with argon prior to examination. The preferred working electrode is a Pt disk (ca. 0.02 cm^2) that is polished with 1 μm diamond paste, rinsed with water, and dried before each experiment. The reference electrode is a NaCl saturated calomel electrode. The cell and reference electrodes are maintained at 22 C. A value of 40 mV is added to the measured potentials to convert the number to that corresponding to an Ag/AgCl reference electrode. If a solvent other than acetonitrile is used then the measured potential must be referenced to a standard organic redox system such as ferrocene and corrected accordingly.
SHACV (Second Harmonic Alternating Current Voltametry) measurements are made as described by Lenhard in the Journal of Imaging Science volume 30, 1986 pp 27-35 using a commercially available (Princeton Applied Research Corp.) potentiostat in conjunction with voltage programmer, a conventional lock-in amplifier, and a low-distortion oscillator. The SHACV method utilizes an ac voltage waveform (of a frequency greater than or equal to 400 hz) that is superimposed on a DC potential ramp. […]

Data set [4] concerns CCL 105 Human Adrenal Cortex Carcinoma. The data set can be described thus: Initial in vitro screening, adrenal cortex carcinoma cells. Format: cell-based. Conditions: for Selectivity: IC50 CV-1 / IC50 cell line 8 (adrenal cortex carcinoma); for IC50: read-out: IC50 (concentration at which 50% of the cells of the culture are killed).
Excerpt: as §1, §2

Data set [5] deals with SCC 68 Human Squamous Cell Carcinoma. The data set can be described thus: Initial in vitro screening, squamous cell carcinoma cells. Type of data set: cell-based. As to conditions: for Selectivity: IC50 CV-1 / IC50 cell line 7 (squamous cell carcinoma); for IC50: read-out: IC50 (concentration at which 50% of the cells of the culture are killed).
Excerpt: as §1, §2

The test system of data set [6] is EJ Human Bladder Carcinoma. The data set can be described thus: Initial in vitro screening, bladder carcinoma cells. Format: cell-based. As to conditions: for Selectivity: IC50 CV-1 / IC50 cell line 5 (bladder carcinoma); for IC50 (concentration at which 50% of the cells of the culture are killed) / IC50: cell line 5, EJ human bladder carcinoma, unit from method; for IC50: read-out: IC50 (concentration at which 50% of the cells of the culture are killed).
Excerpt: as §1, §2

In data set [7] the test system is CRL 1420 Human Pancreatic Carcinoma. The data set can be described thus: Initial in vitro screening, pancreatic carcinoma cells. Type of data set: cell-based. As to conditions: for Selectivity: IC50 CV-1 / IC50 cell line 4 (pancreatic carcinoma); for IC50: read-out: IC50 (concentration at which 50% of the cells of the culture are killed).
Excerpt: as §1, §2

Data set [8] in a line: Electrochemical oxidation potential measurement, SHACV / fast scan CV. Type of data set: physicochemical. As to conditions: Table XIX; oxidation potential vs. Ag/AgCl; in V (unit assumed).
Excerpt: as §3, §4
The procedure for measuring the oxidation or reduction potential by the SHACV method utilizes solutions of acetonitrile (or similar nonaqueous solvent) with added tetrabutylammonium tetrafluoroborate TBABF4 at a concentration of 0.1 M and ca. 5×10^−4 M of the cyanine, oxonol, or merocyanine dye. […] A value of 40 mV is added to the measured potentials to convert the number to that corresponding to an Ag/AgCl reference electrode. If a solvent other than acetonitrile is used then the measured potential must be referenced to a standard organic redox system such as ferrocene and corrected accordingly.

The mark [9] stands for this setting: cell line 6, CCL 185 human lung carcinoma, unit from method.
Setting [10] is: cell line 8, CCL 105 human adrenal cortex carcinoma, unit from method.
Where [11] appears, read: cell line 7, SCC 68 human squamous cell carcinoma, unit from method.
The mark [12] stands for this setting: cell line 4, CRL 1420 human pancreatic carcinoma, unit from method.

For the compound `CCN1C(=CC=Cc2sc3cc4ccccc4cc3[n+]2CC)Sc2cc3ccccc3cc21` [AC-2], the Selectivity in data set [1], in data set [2], in data set [4], in data set [5], in data set [6] and in data set [7] was over 60 each time. The “IC50 (concentration at which 50% of the cells of the culture are killed)” value in data set [1] is “<.005 µg/mL”; in data set [2] (setting [9]), under 5 ng/mL; in data set [4] (setting [10]), under 5 ng/mL; in data set [5] (setting [11]) it was under 5 ng/mL; in data set [6] it was under 5 ng/mL; in data set [7] (setting [12]) it was under 5 ng/mL. The “ER(v), electrochemical reduction potential” value in data set [3] is given as “−.920 V”.

On to `COc1cccc2c1C(=O)c1c(O)c3c(c(O)c1C2=O)C[C@@](O)(C(=O)CO)C[C@@H]3O[C@H]1C[C@H](N)[C@H](O)[C@H](C)O1` [Adriamycin, reference compound], for which the Selectivity in data set [1] came out at 16; in data set [2], 11; in data set [4], 16; in data set [5] it was 10; in data set [6], 8; in data set [7] it was 13. Also, the IC50 in data set [1] was 0.05 µg/mL (≈ 0.092 µM); in data set [2] (setting [9]), 0.07 µg/mL (≈ 0.129 µM); in data set [4] (setting [10]), 0.05 µg/mL (≈ 0.092 µM); in data set [5] (setting [11]) it was 0.08 µg/mL (≈ 0.147 µM); in data set [6], 0.1 µg/mL (≈ 0.184 µM); in data set [7] (setting [12]), 0.06 µg/mL (≈ 0.11 µM). Besides, in data set [3], the “ER(v), electrochemical reduction potential” value is on record as −0.68 V.

For the compound `CCN1/C(=C/C=C/c2sc3ccccc3[n+]2CC)Sc2ccccc21.[I-]` [Dye D-101], the Selectivity in data set [1] is given as 13.3; in data set [2], 50; in data set [4], over 100; in data set [5], 13.3; in data set [6] it was over 100; in data set [7], 100. Moreover, the “IC50 (concentration at which 50% of the cells of the culture are killed)” value was 0.03 µg/mL in data set [1] and under 5 ng/mL in data set [6]. In addition, the “ER(v), electrochemical reduction potential” value in data set [3] was −1.06 V. This compound showed an Er in data set [3] of −1.060. Further, in data set [8], the Eox stood at 0.902.

`CCN1/C(=C\C=C\C2=[N+](CC)c3ccccc3C2(C)C)C(C)(C)c2ccccc21` [Dye D-103] gave an Er in data set [3] of −1.000. Also, the Eox in data set [8] is recorded as 1.088.

In data set [3], `CCN1/C(=C/C=C/c2sc3cc4ccccc4cc3[n+]2CC)Sc2cc3ccccc3cc21` [Dye D-109] yielded an Er of −0.920. The Eox in data set [8] stood at 1.015.

With `CCN1C(=CC=Cc2sc3cc4ccccc4nc3[n+]2CC)Sc2cc3ccccc3nc21` [Dye D-150], the Selectivity amounted to 100 in data set [1]; 150 in data set [2]; 300 in data set [4]; 30 in data set [5]; 300 in data set [6]; 100 in data set [7]. The IC50 was 0.03 µg/mL in data set [1]; 0.02 µg/mL in data set [2] (setting [9]); 0.01 µg/mL in data set [4] (setting [10]); 0.1 µg/mL in data set [5] (setting [11]); 0.01 µg/mL in data set [6]; 0.03 µg/mL in data set [7] (setting [12]). Further, the “ER(v), electrochemical reduction potential” value in data set [3] was “−.808 V”. In data set [3], this compound had an Er of −0.808. The compound further gave an Eox in data set [8] of 1.145.

As for `CCN1/C(=C/C=C/c2sc3cc4ccccc4cc3[n+]2CC)Sc2cc3ccccc3cc21` [Dye D-160], the IC50 in data set [1], in data set [2] (setting [9]), in data set [4] (setting [10]), in data set [5] (setting [11]), in data set [6] and in data set [7] (setting [12]) was under 0.005 µg/mL in each case. Besides, in data set [3], the Er is on record as −0.920. The same compound had an Eox in data set [8] of 1.015.
